The target in this experiment is human insulin receptor (Homo sapiens, UniProt P06213). The format is binding. On the procedure:
Alternatively the insulin receptor binding was tested in a hIRBHK membrane assay as follows: • Binding of [^125I]-human insulin to membrane-associated recombinant human insulin receptor isoform A (hIR-A) • Reagents: • ^125I-Insulin: Novo Nordisk A/S, mono ^125I-(TyrA14) human insulin • Human Insulin: Novo Nordisk A/S, • Human serum albumin: Dade Behring, ORHA 194 C30, lot 455077 • Plastic ware: Packard OptiPlate™-96, #6,005,290 • Scintillant: Amersham Biosciences, WGA coated PVT microspheres, # RPNQ0001 • Cells: BHK tk^− ts13 cells expressing recombinant human insulin receptor isoform A (hIR12-14).
Extraction of membrane-associated insulin receptors: BHK cells from a ten-layer cell factory were harvested and homogenised in 25 ml of ice-cold buffer (25 mM HEPES pH 7.4, 2.5 mM CaCl2, 1 mM MgCl2, 250 mg/l bacitracin, 0.1 mM Pefablock). The homogenate was layered carefully on 41% sucrose cushions, centrifuged in the ultracentrifuge at 95,000×g for 75 minutes in a Beckman SW28 rotor at 4° C. The plasma membranes were collected from the top of the sucrose cushion, diluted 1:4 with buffer and centrifuged at 40,000×g for 45 min in a Beckman SW28 rotor. The pellets were suspended in buffer (25 mM HEPES pH 7.4, 2.5 mM CaCl2, 1 mM MgCl2, 250 mg/l bacitracin, 0.1 mM Pefablock) and stored at −80° C.
Radioligand binding to membrane-associated insulin receptors was performed in duplicate in 96-well OptiPlates. Membrane protein was incubated for 150 minutes at 25° C. with […] [^125I-Tyr^A14]-human insulin in a total volume of […] assay buffer (50 mM HEPES, 150 mM NaCl, 5 mM MgSO4, 0.01% Triton X-100, 0.1% HSA, Complete™ EDTA-free protease inhibitors) and increasing concentrations of human insulin or insulin analogues (typically between 0.01 and 300 nM). The assay was terminated by addition of 50 μl of a suspension of WGA-coated PVT microspheres (20 mg/ml). Following 5 minutes of slight agitation, the plate was centrifuged at 1500 RPM for 6 minutes, and bound radioactivity quantified by counting in a Packard TopCount NXT after a delay of 60 minutes. […]

The mark [1] stands for this setting: acylated single-chain insulins of Examples 2-4.

Where two headings read alike, the source gives them in different places. Bridges are numbered along the chain shown (N, C = ends). Where no end group is shown, it is not given here.

human insulin receptor, sequence (P06213 28-746 isoform P06213-2 limits assumed): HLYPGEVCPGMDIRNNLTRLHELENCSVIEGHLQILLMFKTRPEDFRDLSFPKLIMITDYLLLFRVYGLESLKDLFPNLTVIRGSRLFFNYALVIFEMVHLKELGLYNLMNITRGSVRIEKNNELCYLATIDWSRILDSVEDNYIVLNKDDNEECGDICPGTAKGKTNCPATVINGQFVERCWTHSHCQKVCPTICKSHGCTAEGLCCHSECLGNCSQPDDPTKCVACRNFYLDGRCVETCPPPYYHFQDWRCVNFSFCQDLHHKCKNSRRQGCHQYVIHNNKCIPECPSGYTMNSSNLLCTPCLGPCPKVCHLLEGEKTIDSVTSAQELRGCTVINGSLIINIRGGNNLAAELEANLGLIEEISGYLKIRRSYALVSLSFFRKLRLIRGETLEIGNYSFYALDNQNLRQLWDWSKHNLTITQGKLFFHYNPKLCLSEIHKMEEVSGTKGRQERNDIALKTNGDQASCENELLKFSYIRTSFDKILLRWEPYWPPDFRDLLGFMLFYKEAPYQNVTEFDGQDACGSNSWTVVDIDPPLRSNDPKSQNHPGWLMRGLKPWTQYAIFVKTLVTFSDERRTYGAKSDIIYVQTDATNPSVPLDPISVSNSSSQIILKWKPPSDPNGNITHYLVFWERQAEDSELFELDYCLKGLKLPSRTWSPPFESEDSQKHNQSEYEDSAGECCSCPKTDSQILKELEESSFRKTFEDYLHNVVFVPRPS
human insulin receptor, sequence (P06213 763-1382 partner limits assumed): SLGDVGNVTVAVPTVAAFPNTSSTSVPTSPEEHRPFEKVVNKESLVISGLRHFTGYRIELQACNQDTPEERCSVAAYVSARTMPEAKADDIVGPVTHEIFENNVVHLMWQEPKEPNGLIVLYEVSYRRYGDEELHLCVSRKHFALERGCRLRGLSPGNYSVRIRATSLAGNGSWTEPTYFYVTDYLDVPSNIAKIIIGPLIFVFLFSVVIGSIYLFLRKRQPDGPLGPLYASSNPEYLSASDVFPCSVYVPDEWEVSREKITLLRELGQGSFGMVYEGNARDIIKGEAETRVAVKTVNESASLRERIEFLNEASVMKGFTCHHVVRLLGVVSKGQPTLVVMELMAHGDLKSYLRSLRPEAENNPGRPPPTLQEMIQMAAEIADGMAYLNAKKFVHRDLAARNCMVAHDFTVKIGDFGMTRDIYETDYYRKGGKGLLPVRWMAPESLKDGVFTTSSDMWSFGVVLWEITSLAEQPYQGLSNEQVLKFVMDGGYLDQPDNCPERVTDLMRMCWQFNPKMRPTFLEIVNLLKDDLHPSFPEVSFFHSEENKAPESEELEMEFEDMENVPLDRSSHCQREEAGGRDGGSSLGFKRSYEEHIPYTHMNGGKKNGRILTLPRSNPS

For the molecule `CCCCCCCCCCCCCC(=O)NCCCC[C@@H]1NC(=O)CNC(=O)[C@H](CC(C)C)NC(=O)CNC(=O)[C@H]([C@@H](C)O)NC(=O)[C@H](CCCNC(=N)N)NC(=O)[C@@H]2CCCN2C(=O)[C@H]([C@@H](C)O)NC(=O)[C@H](Cc2ccc(O)cc2)NC(=O)[C@H](Cc2ccccc2)NC(=O)[C@H](Cc2ccccc2)NC(=O)CNC(=O)[C@H](CCCNC(=N)N)NC(=O)[C@H](CCC(=O)O)NC(=O)CNC(=O)[C@@H]2CSSC[C@@H](C(=O)NCC(=O)O)NC(=O)[C@H](Cc3ccc(O)cc3)NC(=O)[C@H](CCC(N)=O)NC(=O)[C@H](CCC(=O)O)NC(=O)[C@H](CC(C)C)NC(=O)[C@H](CCC(N)=O)NC(=O)[C@H](Cc3ccc(O)cc3)NC(=O)[C@H](CC(C)C)NC(=O)[C@H](CO)NC(=O)[C@@H]3CSSC[C@H](NC(=O)[C@H](CCC(N)=O)NC(=O)[C@H](CCC(=O)O)NC(=O)[C@H](C(C)C)NC(=O)[C@H]([C@@H](C)CC)NC(=O)CNC(=O)[C@H](CCC(N)=O)NC(=O)CNC1=O)C(=O)N[C@@H](CSSC[C@H](NC(=O)[C@H](CC(C)C)NC(=O)[C@H](Cc1c[nH]cn1)NC(=O)[C@H](CCC(N)=O)NC(=O)[C@H](CCC(N)=O)NC(=O)[C@@H](NC(=O)[C@@H](N)Cc1ccccc1)C(C)C)C(=O)NCC(=O)N[C@@H](CO)C(=O)N[C@@H](Cc1c[nH]cn1)C(=O)N[C@@H](CC(C)C)C(=O)N[C@@H](C(C)C)C(=O)N[C@@H](CCC(=O)O)C(=O)N[C@@H](C)C(=O)N[C@@H](CC(C)C)C(=O)N[C@@H](Cc1ccc(O)cc1)C(=O)N[C@@H](CC(C)C)C(=O)N[C@@H](C(C)C)C(=O)N2)C(=O)N[C@@H]([C@@H](C)O)C(=O)N[C@@H](CO)C(=O)N[C@@H]([C@@H](C)CC)C(=O)N3` [Example 2, B(1-29)-B3Q-B29R-TGLGK((eps)myristoyl)GQ-A(1-21)-A18Q-A21G Human insulin], the “IC50 relative to human insulin in %.” value was 2%.

As for “B(1-29)-B3Q-B29R-TGLGK((eps)hexadecandioyl-γ-L-Glu)GQ-A(1-21)-A 8Q-A21 G Human insulin [Example 4]”, the “IC50 relative to human insulin in %.” value under setting [1] is 0.7%.

As to “B(1-29)-B3Q-B29R-TGLGK((eps)octadecandioyl)GQ-A(1-21)-A18Q-A21G Human insulin (FVQQHLCGSHLVEALYLVCGERGFFYTPRTGLGK(octadecandioyl)GQGIVEQCCTSICSLYQLEQYCG; disulfide 19-56, 42-47, 7-43) [Example 3]”, the “IC50 relative to human insulin in %.” value under setting [1] is recorded as 0.1%.

The values are drawn from patent US8883449B2, “Single-chain insulin” (Novo Nordisk A/S, priority 2003, dated 2014).
